Assay results as given in ChEMBL document CHEMBL3525947, “Potential role of UGT1A4 promoter SNPs in anastrozole pharmacogenomics” (Drug Metab Dispos, 2013).
Blank lines part the entries; values can stand above or below the compound they belong to.

Key:
Format in all cases: ADME
Liver microsome [1] = test: Drug metabolism human liver microsomes treated with 100 uM anastrozole assessed as retention time by mass spectrometry analysis
Liver microsome [2] = test: Drug metabolism human liver microsomes treated with 100 uM lamotrigine assessed as retention time by mass spectrometry analysis
[3] = Drug metabolism in human liver microsomes assessed as UGT1A4 -163G>A(AA) variant-mediated compound glucuronidation at 100 uM by mass spectrometry analysis
[4] = Drug metabolism in human liver microsomes assessed as UGT1A4 -217T>G(GG) mutant-mediated compound glucuronidation at 100 uM by mass spectrometry analysis
[5] = Drug metabolism in human liver microsomes assessed as UGT1A4 70C>A (AA) mutant-mediated compound glucuronidation at 100 uM by mass spectrometry analysis
[6] = Drug metabolism in human liver microsomes assessed as UGT1A4 -217T>G(TT) variant-mediated compound glucuronidation at 100 uM by mass spectrometry analysis
[7] = Drug metabolism in human liver microsomes assessed as UGT1A4 -36G>A (AG) variant-mediated compound glucuronidation at 100 uM by mass spectrometry analysis
[8] = Drug metabolism in human liver microsomes assessed as UGT1A4 142T>G (GG) mutant-mediated compound glucuronidation at 100 uM by mass spectrometry analysis
[9] = Drug metabolism in human liver microsomes assessed as UGT1A4 70C>A (CC) mutant-mediated compound glucuronidation at 100 uM by mass spectrometry analysis
[10] = Drug metabolism in human liver microsomes assessed as UGT1A4 -36G>A (AA) variant-mediated compound glucuronidation at 100 uM by mass spectrometry analysis
[11] = Drug metabolism in human liver microsomes assessed as UGT1A4 -36G>A (GG) mutant-mediated compound glucuronidation at 100 uM by mass spectrometry analysis
Liver microsome [12] = test: Drug metabolism in human liver microsomes assessed as retention time at 100 uM by mass spectrometry analysis
[13] = biological target: T1, UDP-glucuronosyltransferase 1A4 (Homo sapiens, UniProt P22310); test: Drug metabolism assessed as hecogenin-mediated inhibition of human recombinant UGT1A4-catalyzed anastrozole glucuronidation after 90 mins
T1 sequence (P22310 whole entry): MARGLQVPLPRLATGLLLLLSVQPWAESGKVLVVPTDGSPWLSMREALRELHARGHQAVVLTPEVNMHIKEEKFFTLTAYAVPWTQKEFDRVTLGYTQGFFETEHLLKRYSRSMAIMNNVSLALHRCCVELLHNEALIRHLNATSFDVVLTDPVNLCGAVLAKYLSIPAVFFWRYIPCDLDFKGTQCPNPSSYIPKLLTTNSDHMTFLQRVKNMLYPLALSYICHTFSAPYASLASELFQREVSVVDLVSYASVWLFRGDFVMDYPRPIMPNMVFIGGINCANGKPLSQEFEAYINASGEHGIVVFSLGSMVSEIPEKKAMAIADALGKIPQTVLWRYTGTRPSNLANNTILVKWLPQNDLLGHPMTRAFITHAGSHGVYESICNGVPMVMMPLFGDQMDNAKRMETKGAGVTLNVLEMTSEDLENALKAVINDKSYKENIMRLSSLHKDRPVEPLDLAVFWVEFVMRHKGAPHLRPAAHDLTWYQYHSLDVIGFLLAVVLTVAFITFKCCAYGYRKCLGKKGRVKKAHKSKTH

Liver microsome [14] = test: Drug metabolism in human liver microsomes assessed as glucuronide formation per mg protein by mass spectrometry analysis
Liver microsome [15] = test: Drug metabolism in pooled human liver microsomes assessed as IC50 for hecogenin-mediated inhibition of anastrozole glucuronidation after 90 mins; details: 1.5 h
[16] = Drug metabolism in human liver microsomes assessed as UGT1A4 -163G>A(AG) mutant-mediated compound glucuronidation at 100 uM by mass spectrometry analysis
[17] = Drug metabolism in human liver microsomes assessed as UGT1A4 -217T>G(TG) variant-mediated compound glucuronidation at 100 uM by mass spectrometry analysis
[18] = Drug metabolism in human liver microsomes assessed as UGT1A4 -219C>T(TT) mutant-mediated compound glucuronidation at 100 uM by mass spectrometry analysis
[19] = Drug metabolism in human liver microsomes assessed as UGT1A4 70C>A (AC) mutant-mediated compound glucuronidation at 100 uM by mass spectrometry analysis
[20] = Drug metabolism in human liver microsomes assessed as UGT1A4 -163G>A(GG) variant-mediated compound glucuronidation at 100 uM by mass spectrometry analysis
[21] = Drug metabolism in human liver microsomes assessed as UGT1A4 -219C>T(CT) mutant-mediated compound glucuronidation at 100 uM by mass spectrometry analysis
[22] = Drug metabolism in human liver microsomes assessed as UGT1A4 142T>G (TG) mutant-mediated compound glucuronidation at 100 uM by mass spectrometry analysis
[23] = Drug metabolism in human liver microsomes assessed as UGT1A4 -219C>T(CC) mutant-mediated compound glucuronidation at 100 uM by mass spectrometry analysis
[24] = Drug metabolism in human liver microsomes assessed as UGT1A4 142T>G (TT) mutant-mediated compound glucuronidation at 100 uM by mass spectrometry analysis

- Retention_time (Liver microsome [1]): 2.86 min
Compound: CC(C)(C#N)c1cc(Cn2c[n+]([C@@H]3O[C@H](C(=O)[O-])[C@@H](O)[C@H](O)[C@H]3O)cn2)cc(C(C)(C)C#N)c1

- Retention_time (Liver microsome [2]): 1.34 min
Compound: Nc1nc(N)[n+]([C@@H]2O[C@H](C(=O)[O-])[C@@H](O)[C@H](O)[C@H]2O)nc1-c1cccc(Cl)c1Cl

- Drug metabolism [3]: 0.8 pmol/min/µg
- Drug metabolism [4]: 1.9 pmol/min/µg
- Drug metabolism [5]: 0.8 pmol/min/µg
- Drug metabolism [6]: 0.3 pmol/min/µg
- Drug metabolism [7]: 1 pmol/min/µg
- Drug metabolism [8]: 0.3 pmol/min/µg
- Drug metabolism [9]: 0.4 pmol/min/µg
- Drug metabolism [10]: 1.3 pmol/min/µg
- Drug metabolism [11]: 0.3 pmol/min/µg
- Retention_time (Liver microsome [12]): 3.95 min
- IC50 [13]: 4.72 µM
- Drug metabolism (Liver microsome [14]): 0.023 pmol/min
- IC50 (Liver microsome [15]): 15 µM
- Drug metabolism [16]: 0.7 pmol/min/µg
- Drug metabolism [17]: 1.5 pmol/min/µg
- Drug metabolism [18]: 1 pmol/min/µg
- Drug metabolism [19]: 0.3 pmol/min/µg
- Drug metabolism [20]: 0.4 pmol/min/µg
- Drug metabolism [21]: 0.9 pmol/min/µg
- Drug metabolism [22]: 0.3 pmol/min/µg
- Drug metabolism [23]: 0.4 pmol/min/µg
- Drug metabolism [24]: 0.5 pmol/min/µg
Compound: CC(C)(C#N)c1cc(Cn2cncn2)cc(C(C)(C)C#N)c1 [ANASTROZOLE]

- Retention_time (Liver microsome [12]): 1.63 min
- Drug metabolism (Liver microsome [14]): metabolite_detected
Compound: Nc1nnc(-c2cccc(Cl)c2Cl)c(N)n1 [LAMOTRIGINE]
